pIC50: −log10 of the molar value.
Tests used:
[1] = test system: HeLa; assay: Antiproliferative activity against human HeLa cells incubated for 24 hrs by MTT assay; type: functional, cell-based
[2] = test system: HepG2; assay: Antiproliferative activity against human HepG2 cells incubated for 24 hrs by MTT assay; type: functional, cell-based; settings: HepG2, 24 h
[3] = test system: L02; assay: Cytotoxicity against human L02 cells; type: cell-based
[4] = test system: A549; assay: Antiproliferative activity against human A549 cells incubated for 24 hrs by MTT assay; type: functional, cell-based; settings: A549, 24 h
[5] = test system: MCF7; assay: Antiproliferative activity against human MCF7 cells incubated for 24 hrs by MTT assay; type: functional, cell-based; settings: MCF7, 24 h
[6] = test system: SW480; assay: Antiproliferative activity against human SW480 cells incubated for 48 hrs by MTT assay; type: functional, cell-based; settings: SW480, 48 h
[7] = test system: MCF7; assay: Antiproliferative activity against human MCF7 cells incubated for 48 hrs by MTT assay; type: functional, cell-based; settings: MCF7, 48 h
[8] = test system: HL-60; assay: Antiproliferative activity against human HL-60 cells incubated for 48 hrs by MTT assay; type: functional, cell-based; settings: HL-60, 48 h
[9] = test system: SMMC-7721; assay: Antiproliferative activity against human SMMC-7721 cells incubated for 48 hrs by MTT assay; type: functional, cell-based; settings: SMMC-7721, 48 h
[10] = test system: A549; assay: Antiproliferative activity against human A549 cells incubated for 72 hrs by MTT assay; type: functional, cell-based; settings: A549, 72 h
[11] = test system: K562; assay: Cytotoxicity against human K562 cells incubated for 72 hrs by CCK8 assay; type: functional, cell-based; settings: K562, 72 h
[12] = test system: K562/Adr; assay: Cytotoxicity against human K562/ADR cells incubated for 72 hrs by CCK8 assay; type: functional, cell-based
[13] = Resistance index, ratio of IC50 for human K562/ADR cells to IC50 for human K562 cells; type: functional
[14] = test system: K562; assay: Potency index, ratio of doxorubicin IC50 to compound IC50 for human K562 cells; type: functional
[15] = test system: K562/Adr; assay: Potency index, ratio of doxorubicin IC50 to compound IC50 for human K562/ADR cells; type: functional
[16] = test system: CT26; assay: Antiproliferative activity against […] cells incubated for 72 hrs by MTT assay; type: functional, cell-based; settings: Mus musculus, CT26, 72 h
[17] = test system: SK-OV-3; assay: Antiproliferative activity against human SK-OV-3 cells incubated for 72 hrs by MTT assay; type: functional, cell-based; settings: SK-OV-3, 72 h
[18] = test system: HeLa; assay: Antiproliferative activity against human HeLa cells incubated for 72 hrs by MTT assay; type: functional, cell-based
[19] = test system: B16-F10; assay: Antiproliferative activity against mouse B16/F10 cells incubated for 72 hrs by MTT assay; type: functional, cell-based; settings: B16-F10, 72 h
[20] = test system: HepG2; assay: Antiproliferative activity against human HepG2 cells incubated for 72 hrs by MTT assay; type: functional, cell-based; settings: HepG2, 72 h
[21] = test system: MCF7; assay: Antiproliferative activity against human MCF7 cells incubated for 72 hrs by MTT assay; type: functional, cell-based; settings: MCF7, 72 h
[22] = test system: MCF7; assay: Cytotoxicity against human MCF7 cells by MTT assay; type: functional, cell-based
[23] = test system: HCT-116; assay: Antiproliferative activity against human HCT116 cells incubated for 3 days by MTT assay; type: functional, cell-based; settings: HCT-116, 72 h
[24] = test system: A549; assay: Antiproliferative activity against human A549 cells incubated for 3 days by MTT assay; type: functional, cell-based; settings: A549, 72 h
[25] = test system: HepG2; assay: Antiproliferative activity against human HepG2 cells incubated for 3 days by MTT assay; type: functional, cell-based; settings: HepG2, 72 h
[26] = test system: HeLa; assay: Antiproliferative activity against human HeLa cells by MTT assay; type: functional, cell-based
[27] = test system: Vero; assay: Cytotoxicity against African green monkey Vero cells; type: cell-based; settings: Chlorocebus sabaeus
[28] = test system: Calu-1; assay: Antiproliferative activity against human Calu-1 cells incubated for 24 hrs by MTT assay; type: functional, cell-based; settings: Calu-1, 24 h
[29] = test system: K562/A02; assay: Cytotoxicity against human K562/A02 cells by SRB assay; type: functional, cell-based

With `COc1ccc(-c2nnc(SCC(=O)O[C@H]3c4cc5c(cc4[C@@H](c4cc(OC)c(OC)c(OC)c4)[C@H]4C(=O)OC[C@@H]43)OCO5)o2)cc1` the pIC50 [1] was 5.60, the pIC50 [2] was 5.60 and the pIC50 [3] was 4.03. It also gave a pIC50 [4] of 5.60 and a pIC50 [5] of 5.60.
With `CCCC(=O)OC[C@H]1O[C@H](OCc2cn([C@@H]3c4cc5c(cc4[C@@H](c4cc(OC)c(O)c(OC)c4)[C@H]4C(=O)OC[C@@H]43)OCO5)nn2)[C@H](OC(=O)CCC)[C@@H](OC(=O)CCC)[C@H]1OC(=O)CCC` the pIC50 [6] was 6.31, the pIC50 [7] was 6.31 and the pIC50 [8] was 6.31. The pIC50 [9] was 6.31 and the pIC50 [10] was 6.31.
With `COc1cccc(/C=C/C(=O)O[C@H]2c3cc4c(cc3[C@@H](c3cc(OC)c(OC)c(OC)c3)[C@H]3C(=O)OC[C@@H]32)OCO4)c1` the pIC50 [11] was 7.96, the pIC50 [12] was 7.96 and the “Ratio IC50” value [13] was 1.1.
With `COc1ccc(/C=C/C(=O)O[C@@H]2c3cc4c(cc3[C@@H](c3cc(OC)c(OC)c(OC)c3)[C@H]3C(=O)OC[C@@H]32)OCO4)cc1OC` the pIC50 [11] was 7.96, the “Ratio IC50” value [14] was 2.2 and the “Ratio IC50” value [15] was 2.2. The pIC50 [12] was 7.96 and the “Ratio IC50” value [13] was 1.1.
Compound `COc1ccc(-c2coc3cc(OCCCCC(=O)O[C@@H]4c5cc6c(cc5[C@@H](c5cc(OC)c(OC)c(OC)c5)[C@H]5C(=O)OC[C@@H]54)OCO6)ccc3c2=O)cc1` has a pIC50 [16] of 6.67, a pIC50 [17] of 6.67 and a pIC50 [18] of 6.67. For the same compound, the pIC50 [19] was 6.67, the pIC50 [10] was 6.67 and the pIC50 [20] was 6.67. For the same compound, the pIC50 [21] was 6.67.
In the case of `COc1cc([C@@H]2c3cc4c(cc3[C@H](OC(=O)/C=C/c3ccco3)[C@H]3COC(=O)[C@H]23)OCO4)cc(OC)c1OC`, the pIC50 [11] was 7.96, the pIC50 [12] was 7.96 and the “Ratio IC50” value [13] was 1.1.
With `COc1cc([C@@H]2c3cc4c(cc3[C@@H](OC(=O)/C=C/c3ccc([N+](=O)[O-])cc3)[C@H]3COC(=O)[C@H]23)OCO4)cc(OC)c1OC` the pIC50 [11] was 7.96, the “Ratio IC50” value [14] was 2.2 and the “Ratio IC50” value [15] was 2.2. The pIC50 [12] was 7.96 and the “Ratio IC50” value [13] was 1.1.
In the case of `COc1cc([C@@H]2c3cc4c(cc3[C@@H](OCc3cn([C@@H]5O[C@H](COC(C)=O)[C@H](OC(C)=O)[C@H](OC(C)=O)[C@H]5OC(C)=O)nn3)[C@H]3COC(=O)[C@H]23)OCO4)cc(OC)c1OC`, the pIC50 [22] was 5.90.
With `COc1cc([C@@H]2c3cc4c(cc3[C@H](OC(=O)CSc3nnc(-c5ccc(Br)cc5)o3)[C@H]3COC(=O)[C@H]23)OCO4)cc(OC)c1OC` the pIC50 [1] was 5.60, the pIC50 [2] was 5.60 and the pIC50 [3] was 4.10. For the same compound, the pIC50 [4] was 5.60 and the pIC50 [5] was 5.60.
With `COc1ccc(-c2coc3cc(OCC(=O)O[C@@H]4c5cc6c(cc5[C@@H](c5cc(OC)c(OC)c(OC)c5)[C@H]5C(=O)OC[C@@H]54)OCO6)ccc3c2=O)cc1` the pIC50 [16] was 6.67, the pIC50 [17] was 6.67 and the pIC50 [18] was 6.67. For the same compound, the pIC50 [19] was 6.67, the pIC50 [10] was 6.67 and the pIC50 [20] was 6.67. The pIC50 [21] was 6.67.
`COc1cc([C@@H]2c3cc4c(cc3[C@@H](NC(=S)NC(=O)c3ccccc3I)[C@H]3COC(=O)[C@H]23)OCO4)cc(OC)c1OC` showed a pIC50 [23] of 7.00, a pIC50 [24] of 7.00 and a pIC50 [25] of 7.00.
With `COc1cc([C@@H]2c3cc4c(cc3[C@@H](OC(=O)/C=C/c3ccco3)[C@H]3COC(=O)[C@H]23)OCO4)cc(OC)c1OC` the pIC50 [11] was 7.96, the “Ratio IC50” value [14] was 2.2 and the “Ratio IC50” value [15] was 2.2. The pIC50 [12] was 7.96 and the “Ratio IC50” value [13] was 1.1.
With `COc1ccc2c(c1)cc(/C=N/[C@@H]1c3cc4c(cc3[C@@H](c3cc(OC)c(OC)c(OC)c3)[C@H]3C(=O)OC[C@@H]31)OCO4)n2Cc1ccccc1F` the pIC50 [26] was 6.19.
Compound `COc1cc([C@@H]2c3cc4c(cc3[C@@H](N)[C@H]3COC(=O)[C@H]23)OCO4)cc(OC)c1OC` [4BETA-NH2-PODOPHYLLOTOXIN] has a pIC50 [23] of 7.00, a pIC50 [24] of 7.00 and a pIC50 [25] of 7.00.
`COc1ccc(/C=C\c2cc(OC)c(OC)c(OC)c2)cc1O` [COMBRETASTATIN A4] showed a pIC50 [27] of 5.59, a pIC50 [1] of 5.56 and a pIC50 [2] of 5.46. It also gave a pIC50 [3] of 5.37, a pIC50 [4] of 5.56 and a pIC50 [28] of 5.56. The pIC50 [5] was 5.46.
`COc1cccc2c1C(=O)c1c(O)c3c(c(O)c1C2=O)C[C@@](O)(C(=O)CO)C[C@@H]3O[C@H]1C[C@H](N)[C@H](O)[C@H](C)O1` [DOXORUBICIN] showed a GI50 [29] of 14300 nM and a pIC50 [12] of 6.66.

— ChEMBL document CHEMBL4818987, “Recent advances of podophyllotoxin/epipodophyllotoxin hybrids in anticancer activity, mode of action, and structure-activity relationship: An update (2010-2020)” (Eur J Med Chem, 2020)
